One data set in a line: Solubility. It is filed as physicochemical.
The next data set is described as follows: in vivo. The note with it: mouse.

Like-named read-outs stand apart in the source and are kept apart here.

A word on the LD50: it is the dose expected to kill half of the subjects tested. In the data set “Solubility” (ethanol), `CCCCC1C(=O)OC(CCCNC(=N)N)C(C)C(O)C(C)C=C(C)CCCCC(O)CC(O)CC(O)CC(O)CC(O)C(OC2OC(CO)C(O)C2O)C=C(C)C(O)CCCC(O)CCCC(O)CCC(C)C1O` (stereo not shown) [Pseudo-primycin-A1-acetate] registered a solubility in ethanol of 5 g/10 ml. In “Solubility” (methanol), this compound returned a solubility in methanol of 10 g/10 ml. For the same compound, the solubility in water in “Solubility” (water) is 5 g/10 ml. For the same compound, the median lethal dose (LD50) in “in vivo” (iv, female mice, read-out: LD50 values i.v. female) amounted to 18.8 mg/kg; in the data set “in vivo” (iv, male mice, read-out: LD50 values i.v. male), 17.7 mg/kg; in “in vivo” (po, female mice, read-out: LD50 values p.o. female) it was 1580 mg/kg; in the data set “in vivo” (po, male mice, read-out: LD50 values p.o. male), 1720 mg/kg.

(Values after patent US5260426A, “Process for the preparation of pseudo primycin” (Chinoin Gyogyszer Es Vegyeszeti Termekek Gyara R.T., priority 1988, dated 1993).)
